According to article PMC9688530, “Development of Ic-ELISA and Colloidal Gold Lateral Flow Immunoassay for the Determination of Cypermethrin in Agricultural Samples” (Biosensors, 2022):
Converted amounts (≈) assume the structure as drawn. “And” between values parts separate entries of the source, which are not always exact repeats. Identical values can stand only once.

Assays:
[1] = tested on: anti-CYP mAb 1E7D5; assay: homologous ic-ELISA, hapten 1 coating antigen, mAb 1E7D5; format: binding, mouse; conditions: hapten 1 as coating antigen
Procedure: (§1) The ic-ELISA procedure was executed according to previous studies. Each well of the ELISA plate was coated with 100 μL of coating antigen diluted with carbonate buffer (0.05 mol/L, pH 9.6) at 4 °C overnight. After washing three times with phosphate-buffered saline (PBS, 0.01 mol/L, pH 7.4) containing 1‰ Tween-20, the wells were blocked with 200 μL of 5% skim milk powder in PBS at 37 °C for two hours. After the same washing procedure, 50 μL of CYP standard solution and 50 μL of mAb were pipetted into each well and incubated at 37 °C for one hour. After washing five times, 100 μL per well of 0.5‰ horseradish peroxidase-labeled goat anti-mouse IgG antibody in PBS was added and incubated at 37 °C for one hour. After the wells were washed five times, 100 μL per well of fresh substrate solution (0.1 mg/mL 3,3′,5,5′-tetramethylbenzidine and 0.024‰ H2O2 in 0.1 M citrate acid buffer) was added to react at 37 °C for 15 min. Then, 50 μL per well of 0.2 mol/L H2SO4 was used to stop the reaction, and the absorbances were read at 450 nm with a microplate reader.
(§2) After five immunizations, the anti-serum of five mice was collected to determine the serum titer. All mouse serum had high titers ranging from 1:64,000 to 1:256,000. […] Then, the sensitivity of these monoclonal antibodies was evaluated by homologous ic-ELISA. […] The subtype of mAb 2G7H9 was determined as IgG2b by a kit. […]

[2] = design: method as in doi:10.11895/j.issn.0253-3820.160428; conditions: cited from earlier work
[3] = tested on: anti-CYP mAb 6F1G10; assay: homologous ic-ELISA, hapten 1 coating antigen, mAb 6F1G10; format: binding, mouse; conditions: hapten 1 as coating antigen
Procedure: as §1, §2

[4] = design: method as in doi:10.1016/j.cropro.2009.01.003; conditions: cited from earlier work
[5] = tested on: antibody against CYP; design: method as in PMID 26965575; conditions: cited from earlier work
[6] = tested on: anti-CYP mAb 2G9A8; assay: homologous ic-ELISA, hapten 1 coating antigen, mAb 2G9A8; format: binding, mouse; conditions: hapten 1 as coating antigen
Procedure: as §1, §2

[7] = tested on: monoclonal antibody; design: method as in doi:10.1080/09540105.2013.794328; conditions: ic-ELISA based on a monoclonal antibody; cited from earlier work
[8] = tested on: anti-CYP mAb 2G7H9; assay: ic-ELISA based on mAb 2G7H9; format: binding, mouse
Procedure: as §1
Under the optimal conditions, a standard curve was constructed using a series of concentrations of standard solutions (50, 25, 12.5, 6.25, 3.13, 1.56, 0.78, 0.39 and 0.20 ng/mL) to assess the sensitivity of ic-ELISA. The IC50 and linear range (IC10–IC90) were calculated by a logistic equation established with Origin Pro 8.0.
The CRs of the ic-ELISA were calculated with the following equation:CR (%) = (IC50 of CYP/IC50 of analogues) × 100%.

CC1(C)C(C=C(Cl)Cl)C1C(=O)OC(C#N)c1cccc(Oc2ccccc2)c1 (stereo not drawn) [CYP, Cypermethrin]
IC50 [1]: 314 ng/mL (≈ 0.754 µM) | sensitivity [2]: 5000 ng/mL | IC50 [3]: 575 ng/mL (≈ 1.38 µM) | minimum detection concentration [4]: 800 ng/mL | IC50 [5]: 2.59 ng/mL and 2.6 ng/mL | IC50 [6]: 176 ng/mL (≈ 0.423 µM) | IC50 [7]: 1.7 ng/mL (≈ 0.00408 µM) | IC50 ([8]; hapten 5-BSA as coating antigen, before buffer optimization): 5.75 ng/mL (≈ 0.0138 µM) | IC50 ([8]; homologous ic-ELISA, hapten 1 as coating antigen): 19.14 ng/mL (≈ 0.046 µM) | IC50 ([8]; homologous ic-ELISA, hapten 1 as coating antigen, listed as Cypermethrin): 19 ng/mL (≈ 0.0456 µM) | limit of detection (IC10) ([8]; optimal conditions): 0.40 ng/mL | linear range (IC10–IC90) ([8]; optimal conditions): 0.40 to 7.87 ng/mL | IC50 ([8]; optimal conditions, coating antigen hapten 5-BSA, PBS pH 7.4, 10% methanol, 0.3 mol/L NaCl): 2.49 ng/mL (≈ 0.00598 µM) | IC50 ([8]; working buffer: 10% Acetone): 7.99 ng/mL (≈ 0.0192 µM) | IC50 ([8]; working buffer: 10% Acetonitrile): 8.88 ng/mL (≈ 0.0213 µM) | IC50 ([8]; working buffer: 10% Dimethyl sulfoxide): 11.03 ng/mL (≈ 0.0265 µM) | IC50 ([8]; working buffer: 10% Methanol (solvent type comparison)): 7.67 ng/mL (≈ 0.0184 µM) | IC50 ([8]; working buffer: Methanol 5%): 30.63 ng/mL (≈ 0.0736 µM) | IC50 ([8]; working buffer: Methanol 20%): 20.59 ng/mL (≈ 0.0495 µM) | IC50 ([8]; working buffer: Methanol 40%): 24.47 ng/mL (≈ 0.0588 µM) | IC50 ([8]; working buffer: Na+ 0.07 mol/L): 43.31 ng/mL (≈ 0.104 µM) | IC50 ([8]; working buffer: Na+ 0.14 mol/L): 9.22 ng/mL (≈ 0.0221 µM) | IC50 ([8]; working buffer: Na+ 0.2 mol/L): 13.58 ng/mL (≈ 0.0326 µM) | IC50 ([8]; working buffer: Na+ 0.3 mol/L): 2.42 ng/mL (≈ 0.00581 µM) | IC50 ([8]; working buffer: Na+ 0.4 mol/L): 2.94 ng/mL (≈ 0.00706 µM) | IC50 ([8]; working buffer: pH 6): 4.41 ng/mL (≈ 0.0106 µM) | IC50 ([8]; working buffer: pH 7): 5.24 ng/mL (≈ 0.0126 µM) | IC50 ([8]; working buffer: pH 7.4): 3.09 ng/mL (≈ 0.00742 µM) | IC50 ([8]; working buffer: pH 8): 8.06 ng/mL (≈ 0.0194 µM) | IC50 ([8]; working buffer: pH 9): 4.03 ng/mL (≈ 0.00968 µM)
